In brackets after ≈: the same amount, converted by molar mass.
Experiments:
Acinetobacter = experiment: Tested in vitro for the antibacterial activity against Acinetobacter sp. strain AC 12; type: functional
[1] = Half-life was determined; type: ADME; conditions: human
Citrobacter freundii [2] = experiment: Tested in vitro for the antibacterial activity against Citrobacter freundii strain CF 17; type: functional
Enterococcus [3] = experiment: Tested in vitro for the antibacterial activity against Enterococcus sp. strain 2041; type: functional
Enterococcus [4] = experiment: Tested in vitro for the antibacterial activity against Enterococcus sp. strain X 66; type: functional
Enterobacter cloacae [5] = experiment: Tested in vitro for the antibacterial activity against Enterobacter cloacae strain 265 A; type: functional
Enterobacter cloacae [6] = experiment: Tested in vitro for the antibacterial activity against Enterobacter cloacae strain EB 5; type: functional
Escherichia coli [7] = experiment: Tested in vitro for the beta lactamase inhibition of Escherichia coli TEM; type: functional
Escherichia coli [8] = experiment: Tested in vitro for the antibacterial activity against Escherichia coli strain EC 14; type: functional
Escherichia coli [9] = experiment: Tested in vitro for the antibacterial activity against Escherichia coli strain N 10; type: functional
Escherichia coli [10] = experiment: Tested in vitro for the antibacterial activity against Escherichia coli strain TEM; type: functional
Enterobacter cloacae [11] = experiment: Tested in vitro for the beta lactamase inhibition of Enterobacter cloacae; type: functional, organism-based
Klebsiella aerogenes [12] = experiment: Tested in vitro for the antibacterial activity against Enterobacter aerogenes strain C 32; type: functional
Klebsiella aerogenes [13] = experiment: Tested in vitro for the antibacterial activity against Enterobacter aerogenes strain EB 17; type: functional
Haemophilus influenzae [14] = experiment: Tested in vitro for the antibacterial activity against Haemophilus influenzae (b-lac+) strain 76; type: functional
Haemophilus influenzae [15] = experiment: Tested in vitro for the antibacterial activity against Haemophilus influenzae (b-lac-) strain CL; type: functional
Klebsiella [16] = experiment: Tested in vitro for the antibacterial activity against Klebsiella sp. strain KAE; type: functional
Klebsiella [17] = experiment: Tested in vitro for the antibacterial activity against Klebsiella sp. strain X 26; type: functional
Klebsiella [18] = experiment: Tested in vitro for the antibacterial activity against Klebsiella sp. strain X 68; type: functional
Providencia stuartii [19] = experiment: Tested in vitro for the antibacterial activity against Providencia stuartii strain PR 33; type: functional
Providencia rettgeri = experiment: Tested in vitro for the antibacterial activity against Providencia rettgeri strain C 24; type: functional
Salmonella [20] = experiment: Tested in vitro for the antibacterial activity against Salmonella sp. strain 1335; type: functional
Salmonella [21] = experiment: Tested in vitro for the antibacterial activity against Salmonella sp. strain X 514; type: functional
Serratia marcescens [22] = experiment: Tested in vitro for the antibacterial activity against Serratia marcescens strain SE 3; type: functional
Serratia marcescens [23] = experiment: Tested in vitro for the antibacterial activity against Serratia marcescens strain X 99; type: functional
Shigella sonnei = experiment: Tested in vitro for the antibacterial activity against Shigella sonnei strain N 9; type: functional
[24] = test system: Staphylococcus epidermidis; experiment: Tested in vitro for the antibacterial activity against Staphylococcus epidermidis strain 222; type: functional
[25] = test system: Staphylococcus epidermidis; experiment: Tested in vitro for the antibacterial activity against Staphylococcus epidermidis strain 270; type: functional
Streptococcus pyogenes = experiment: Tested in vitro for the antibacterial activity against Streptococcus pyogenes strain C 203; type: functional
Staphylococcus aureus [26] = experiment: Tested in vitro for the antibacterial activity against Staphylococcus aureus strain S 13 E; type: functional
Staphylococcus aureus [27] = experiment: Tested in vitro for the antibacterial activity against Staphylococcus aureus strain V 41; type: functional
Staphylococcus aureus [28] = experiment: Tested in vitro for the antibacterial activity against Staphylococcus aureus strain X 1.1; type: functional
Staphylococcus aureus [29] = experiment: Tested in vitro for the antibacterial activity against Staphylococcus aureus strain X 400; type: functional
Streptococcus pneumoniae = experiment: Tested in vitro for the antibacterial activity against Streptococcus pneumoniae strain Park I; type: functional
Morganella morganii = experiment: Tested in vitro for the antibacterial activity against Morganella morganii strain PR 15; type: functional
Citrobacter freundii [30] = experiment: Tested in vitro for the antibacterial activity against Citrobacter freundii strain CF17; type: functional
Providencia stuartii [31] = experiment: […] Tested in vitro for the antibacterial activity against Providencia stuartii strain PR 33; type: functional

MIC (Acinetobacter)	MIC (Enterococcus [3])	MIC (Enterococcus [4])	MIC (Enterobacter cloacae [5])	MIC (Enterobacter cloacae [6])	IC50 (Escherichia coli [7])	MIC (Escherichia coli [8])	MIC (Escherichia coli [9])	MIC (Escherichia coli [10])	IC50 (Enterobacter cloacae [11])	MIC (Klebsiella aerogenes [12])	MIC (Klebsiella aerogenes [13])	MIC (Haemophilus influenzae [14])	MIC (Haemophilus influenzae [15])	MIC (Klebsiella [16])	MIC (Klebsiella [17])	MIC (Klebsiella [18])	MIC (Providencia rettgeri)	MIC (Salmonella [20])	MIC (Salmonella [21])	SMILES	other results
16 µg/mL	32 µg/mL	16 µg/mL	128 µg/mL	128 µg/mL	50 nM	128 µg/mL	64 µg/mL	128 µg/mL	300 nM	128 µg/mL	128 µg/mL	8 µg/mL	8 µg/mL	64 µg/mL	8 µg/mL	64 µg/mL	8 µg/mL	128 µg/mL	32 µg/mL	C[C@@H](O)[C@H]1C(=O)N2C(C(=O)[O-])=C(C(C)(C)C)S[C@H]12.[K+]	half-life [1]: 16 days; MIC (Citrobacter freundii [2]): 128 µg/mL; MIC (Providencia stuartii [19]): 32 µg/mL; MIC (Serratia marcescens [22]): 128 µg/mL; MIC (Serratia marcescens [23]): 128 µg/mL; MIC (Shigella sonnei): 64 µg/mL; MIC [24]: 2 µg/mL; MIC [25]: 0.5 µg/mL; MIC (Streptococcus pyogenes): 0.12 µg/mL; MIC (Staphylococcus aureus [26]): 4 µg/mL; MIC (Staphylococcus aureus [27]): 1 µg/mL; MIC (Staphylococcus aureus [28]): 0.5 µg/mL; MIC (Staphylococcus aureus [29]): 4 µg/mL; MIC (Streptococcus pneumoniae): 0.12 µg/mL; MIC (Morganella morganii): 32 µg/mL
					40 nM				100000 nM											O=C(O)[C@H]1/C(=C/CO)O[C@@H]2CC(=O)N21 [CLAVULANIC ACID]	
8 µg/mL	16 µg/mL	2 µg/mL	32 µg/mL	32 µg/mL	3000 nM	4 µg/mL	4 µg/mL	4 µg/mL	2 nM	8 µg/mL	32 µg/mL	0.5 µg/mL	0.5 µg/mL	4 µg/mL	1 µg/mL	2 µg/mL	4 µg/mL	4 µg/mL	1 µg/mL	C[C@@H](O)[C@H]1C(=O)N2C(C(=O)[O-])=C(C(C)(C)C)O[C@H]12.[K+]	MIC (Citrobacter freundii [2]): 16 µg/mL; MIC (Providencia stuartii [19]): 4 µg/mL; MIC (Serratia marcescens [22]): 64 µg/mL; MIC (Serratia marcescens [23]): 16 µg/mL; MIC (Shigella sonnei): 4 µg/mL; MIC [24]: 0.25 µg/mL; MIC [25]: 4 µg/mL; MIC (Streptococcus pyogenes): 0.06 µg/mL; MIC (Staphylococcus aureus [26]): 1 µg/mL; MIC (Staphylococcus aureus [27]): 1 µg/mL; MIC (Staphylococcus aureus [28]): 0.25 µg/mL; MIC (Staphylococcus aureus [29]): 2 µg/mL; MIC (Streptococcus pneumoniae): 0.03 µg/mL; MIC (Morganella morganii): 8 µg/mL

SMILES	MIC (Acinetobacter)	MIC (Enterococcus [3])	MIC (Enterococcus [4])	MIC (Enterobacter cloacae [5])	MIC (Enterobacter cloacae [6])	IC50 (Escherichia coli [7])	MIC (Escherichia coli [8])	MIC (Escherichia coli [9])	MIC (Escherichia coli [10])	IC50 (Enterobacter cloacae [11])	MIC (Klebsiella aerogenes [12])	MIC (Klebsiella aerogenes [13])	MIC (Haemophilus influenzae [14])	MIC (Haemophilus influenzae [15])	MIC (Klebsiella [16])	MIC (Klebsiella [17])	MIC (Klebsiella [18])	MIC (Providencia rettgeri)	MIC (Salmonella [20])	MIC (Salmonella [21])	other results
CC(C)(O/N=C(\C(=O)N[C@@H]1C(=O)N2C(C(=O)[O-])=C(C[n+]3ccccc3)CS[C@H]12)c1csc(N)n1)C(=O)O [CEFTAZIDIME]	1 µg/mL (≈ 1.83 µM)	16 µg/mL (≈ 29.3 µM)	128 µg/mL (≈ 234 µM)	32 µg/mL (≈ 58.5 µM)	0.12 µg/mL (≈ 0.22 µM)		0.03 µg/mL (≈ 0.0549 µM)	0.06 µg/mL (≈ 0.11 µM)	0.03 µg/mL (≈ 0.0549 µM)		2 µg/mL (≈ 3.66 µM)	0.12 µg/mL (≈ 0.22 µM)	0.03 µg/mL (≈ 0.0549 µM)	0.06 µg/mL (≈ 0.11 µM)	0.5 µg/mL (≈ 0.915 µM)	0.06 µg/mL (≈ 0.11 µM)	0.12 µg/mL (≈ 0.22 µM)	0.03 µg/mL (≈ 0.0549 µM)	0.25 µg/mL (≈ 0.457 µM)	0.06 µg/mL (≈ 0.11 µM)	MIC (Citrobacter freundii [30]): 0.5 µg/mL (≈ 0.915 µM); MIC (Providencia stuartii [31]): 0.06 µg/mL (≈ 0.11 µM); MIC (Serratia marcescens [22]): 0.06 µg/mL (≈ 0.11 µM); MIC (Serratia marcescens [23]): 0.12 µg/mL (≈ 0.22 µM); MIC (Shigella sonnei): 0.03 µg/mL (≈ 0.0549 µM); MIC [24]: 16 µg/mL (≈ 29.3 µM); MIC [25]: 16 µg/mL (≈ 29.3 µM); MIC (Streptococcus pyogenes): 0.06 µg/mL (≈ 0.11 µM); MIC (Staphylococcus aureus [26]): 64 µg/mL (≈ 117 µM); MIC (Staphylococcus aureus [27]): 8 µg/mL (≈ 14.6 µM); MIC (Staphylococcus aureus [28]): 8 µg/mL (≈ 14.6 µM); MIC (Staphylococcus aureus [29]): 64 µg/mL (≈ 117 µM); MIC (Streptococcus pneumoniae): 0.03 µg/mL (≈ 0.0549 µM); MIC (Morganella morganii): 0.25 µg/mL (≈ 0.457 µM)
